In the assay the target is hCRTH2 receptor (Homo sapiens (Human), UniProt Q9Y5Y4). The experiment in a line: hCRTH2 receptor membranes radioligand (3H-PGD2) displacement assay. Format: binding. The note with it: 3H-PGD2 radioligand displacement, HEK293-hCRTH2 membranes. Summed up: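 HEK293-hCRTH2 membranes, 20 μg/well; 3H-PGD2 added at 2.5 nM; binding buffer 50 mM Tris, 10 mM MnCl2, 1 mM EDTA, pH 7.0; 90 min RT; GF/C filtration, scintillation count. Nonspecific binding: PGD2 at […].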
For orientation: Loss of bound radioactivity is the signal in a displacement assay; it reports binding, not function.

34 compounds from US9255090B2, “Heterocyclyl derivatives and their use as prostaglandin D2 receptor modulators” (Actelion Pharmaceuticals Ltd., priority 2012, dated 2016) can be followed below.

hCRTH2 receptor, sequence (Q9Y5Y4 whole entry): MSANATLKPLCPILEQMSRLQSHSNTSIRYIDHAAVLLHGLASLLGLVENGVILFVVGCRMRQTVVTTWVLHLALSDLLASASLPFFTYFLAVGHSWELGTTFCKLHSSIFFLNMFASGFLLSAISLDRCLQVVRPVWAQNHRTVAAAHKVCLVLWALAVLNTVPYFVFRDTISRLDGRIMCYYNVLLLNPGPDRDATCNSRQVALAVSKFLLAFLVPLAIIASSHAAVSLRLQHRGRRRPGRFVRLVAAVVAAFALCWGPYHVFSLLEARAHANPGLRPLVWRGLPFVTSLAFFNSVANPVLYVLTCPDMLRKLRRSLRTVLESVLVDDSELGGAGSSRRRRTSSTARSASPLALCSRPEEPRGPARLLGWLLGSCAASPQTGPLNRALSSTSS

By IC50 is commonly meant the midpoint of a concentration-inhibition curve. Higher therefore signals weaker potency in that assay. With `CC(C)Oc1cc(CC(=O)O)ccc1-c1ccc(F)c2c1CN(C(=O)CC(C)c1ccccn1)CC2` (racemic) [Example 346], the IC50 was determined as 3.7 nM.

In the case of `COc1ccc(CC(=O)O)cc1-c1ccc(F)c2c1CN(C(=O)CC1OCc3ccccc31)CC2` (racemic) [Example 362], the IC50 amounted to 22.9 nM.

Regarding `CC(C)Oc1cc(CC(=O)O)ccc1-c1ccc(F)c2c1CN(C(=O)CC1CCOc3ccccc31)CC2` (racemic) [Example 353], the IC50 was 1.2 nM.

Compound `COc1ccc(CC(=O)O)cc1-c1ccc(F)c2c1CN(C(=O)CC1(c3ccc(F)cc3)CCC1)CC2` [Example 251, [3-(5-Fluoro-2-{2-[1-(4-fluoro-phenyl)-cyclobutyl]-acetyl}-1,2,3,4-tetrahydro-isoquinolin-8-yl)-4-methoxy-phenyl]-acetic acid] had an IC50 of 414 nM.

Compound `CCOc1ccc(CC(=O)O)cc1-c1ccc(F)c2c1CN(C(=O)NCc1ccccn1)CC2` [Example 449, (4-Ethoxy-3-{5-fluoro-2-[(pyridin-2-ylmethyl)-carbamoyl]-1,2,3,4-tetrahydro-isoquinolin-8-yl}-phenyl)-acetic acid] registered an IC50 of 14.2 nM.

The compound `CS(=O)(=O)c1ccc(CC(=O)O)cc1-c1ccc(F)c2c1CN(C(=O)OCc1ccccc1)CC2` [Example 20, 8-(5-Carboxymethyl-2-methanesulfonyl-phenyl)-5-fluoro-3,4-dihydro-1H-isoquinoline-2-carboxylic acid benzyl ester] yielded an IC50 of 16.3 nM.

As to `O=C(O)Cc1ccc(C(F)(F)F)c(-c2ccc(F)c3c2CN(C(=O)OCc2ccccc2)CC3)c1` [Example 8, 8-(5-Carboxymethyl-2-trifluoromethyl-phenyl)-5-fluoro-3,4-dihydro-1H-isoquinoline-2-carboxylic acid benzyl ester], the IC50 came to 7.31 nM.

In turn, `CCOc1ccc(CC(=O)O)cc1-c1ccc(F)c2c1CN(C(=O)CC(C)c1cnccn1)CC2` (racemic) [Example 281] registered an IC50 of 27.5 nM.

`O=C(O)Cc1ccc(Cl)cc1-c1ccc(F)c2c1CN(C(=O)OCc1ccccc1)CC2` [Example 416, 8-(2-Carboxymethyl-5-chloro-phenyl)-5-fluoro-3,4-dihydro-1H-isoquinoline-2-carboxylic acid benzyl ester] displayed an IC50 of 575 nM.

In the case of `COc1ccc(CC(=O)O)cc1-c1ccc(F)c2c1CN(C(=O)COc1ccccc1)CC2` [Example 43, {3-[5-Fluoro-2-(2-phenoxy-acetyl)-1,2,3,4-tetrahydro-isoquinolin-8-yl]-4-methoxy-phenyl}-acetic acid], the half-inhibitory concentration (IC50) was 30.2 nM.

For `O=C(O)Cc1cc(-c2ccc(F)c3c2CN(C(=O)OCc2ccccc2)CC3)ccc1Cl` [Example 11, 8-(3-Carboxymethyl-4-chloro-phenyl)-5-fluoro-3,4-dihydro-1H-isoquinoline-2-carboxylic acid benzyl ester], the IC50 was 69.1 nM.

In turn, `COc1ccc(CC(=O)O)cc1-c1ccc(C(F)(F)F)c2c1CN(C(=O)C1CC1)CC2` [Example 82, [3-(2-Cyclopropanecarbonyl-5-trifluoromethyl-1,2,3,4-tetrahydro-isoquinolin-8-yl)-4-methoxy-phenyl]-acetic acid] yielded an IC50 of 250 nM.

Regarding `COc1ccc(CC(=O)O)cc1-c1ccc(F)c2c1CN(C(=O)CC1CCCCC1)CC2` [Example 127, {3-[2-(2-Cyclohexyl-acetyl)-5-fluoro-1,2,3,4-tetrahydro-isoquinolin-8-yl]-4-methoxy-phenyl}-acetic acid], the IC50 was 176 nM.

In turn, `CCOc1ccc(CC(=O)O)cc1-c1ccc(F)c2c1CN(C(=O)NCc1ccccc1Cl)CC2` [Example 436, {3-[2-(2-Chloro-benzylcarbamoyl)-5-fluoro-1,2,3,4-tetrahydro-isoquinolin-8-yl]-4-ethoxy-phenyl}-acetic acid] came in with an IC50 of 5.4 nM.

Compound `COc1ccc(CC(=O)O)cc1-c1ccc(Cl)c2c1CN(C(=O)CCc1cn(C)c3ccccc13)CC2` [Example 75, (3-{5-Chloro-2-[3-(1-methyl-1H-indol-3-yl)-propionyl]-1,2,3,4-tetrahydro-isoquinolin-8-yl}-4-methoxy-phenyl)-acetic acid] displayed an IC50 of 38.4 nM.

As to `CCOc1ccc(CC(=O)O)cc1-c1ccc(F)c2c1CN(C(=O)NCCc1ccccc1)CC2` [Example 435, [4-Ethoxy-3-(5-fluoro-2-phenethylcarbamoyl-1,2,3,4-tetrahydro-isoquinolin-8-yl)-phenyl]-acetic acid], the IC50 stood at 2.6 nM.

In the case of `COc1ccc(CC(=O)O)cc1-c1c(F)cc(F)c2c1CN(C(=O)[C@@H]1C[C@H]1c1ccccc1)CC2` [Example 38, {3-[5,7-Difluoro-2-((1R,2R)-2-phenyl-cyclopropanecarbonyl)-1,2,3,4-tetrahydro-isoquinolin-8-yl]-4-methoxy-phenyl}-acetic acid], the IC50 was found to be 11.2 nM.

`COc1ccc(CC(=O)O)cc1-c1ccc(F)c2c1CN(C(=O)CC1CC1)CC2` [Example 254, {3-[2-(2-Cyclopropyl-acetyl)-5-fluoro-1,2,3,4-tetrahydro-isoquinolin-8-yl]-4-methoxy-phenyl}-acetic acid]: the half-maximal inhibitory concentration (IC50) came out at 614 nM.

`CCOc1ccc(CC(=O)O)cc1-c1ccc(F)c2c1CN(C(=O)CCc1ncccc1OC)CC2` [Example 309, (4-Ethoxy-3-{5-fluoro-2-[3-(3-methoxy-pyridin-2-yl)-propionyl]-1,2,3,4-tetrahydro-isoquinolin-8-yl}-phenyl)-acetic acid] had an IC50 of 32.3 nM.

Regarding `COc1ccc(CC(=O)O)cc1-c1ccc(F)c2c1CCN(C(=O)OCc1ccccc1)C2` [Example 159, 5-(5-Carboxymethyl-2-methoxy-phenyl)-8-fluoro-3,4-dihydro-1H-isoquinoline-2-carboxylic acid benzyl ester], the IC50 was 594 nM.

`COc1ccc(CC(=O)O)cc1-c1ccc(F)c2c1CN(C(=O)CC1(c3ccccc3)CCC1)CC2` [Example 250, (3-{5-Fluoro-2-[2-(1-phenyl-cyclobutyl)-acetyl]-1,2,3,4-tetrahydro-isoquinolin-8-yl}-4-methoxy-phenyl)-acetic acid] registered an IC50 of 146 nM.

`COc1ccc(CC(=O)O)cc1-c1ccc(Cl)c2c1CN(C(=O)CCN1CCCc3ccccc31)CC2` [Example 77, {3-[5-Chloro-2-(3-3,4-dihydro-2H-quinolin-1-yl-propionyl)-1,2,3,4-tetrahydro-isoquinolin-8-yl]-4-methoxy-phenyl}-acetic acid] returned an IC50 of 24 nM.

In turn, `CCOc1cc(CC(=O)O)ccc1-c1ccc(F)c2c1CN(C(=O)NCc1ccccn1)CC2` [Example 448, (3-Ethoxy-4-{5-fluoro-2-[(pyridin-2-ylmethyl)-carbamoyl]-1,2,3,4-tetrahydro-isoquinolin-8-yl}-phenyl)-acetic acid] returned an IC50 of 9.2 nM.

Compound `COc1ccc(CC(=O)O)cc1-c1ccc(F)c2c1CN(C(=O)/C=C/c1ccccc1)CC2` [Example 85, (3-{5-Fluoro-2-[(E)-(3-phenyl-acryloyl)]-1,2,3,4-tetrahydro-isoquinolin-8-yl}-4-methoxy-phenyl)-acetic acid] registered an IC50 of 35.8 nM.

With `COc1ccc(CC(=O)O)cc1-c1ccc(Cl)c2c1CN(C(=O)CCCc1ccccc1F)CC2` [Example 74, (3-{5-Chloro-2-[4-(2-fluoro-phenyl)-butyryl]-1,2,3,4-tetrahydro-isoquinolin-8-yl}-4-methoxy-phenyl)-acetic acid], the half-maximal inhibitory concentration (IC50) was 10.5 nM.

Consider `CCOc1cc(CC(=O)O)ccc1-c1ccc(F)c2c1CN(C(=O)C1CCc3cccc(OC)c3C1)CC2` (racemic) [Example 325], for which the IC50 was determined as 1.8 nM.

`COc1ccc(CC(=O)O)cc1-c1ccc(F)c2c1CN(C(=O)Cc1cn(C)c3ccccc13)CC2` [Example 119, (3-{5-Fluoro-2-[2-(1-methyl-1H-indol-3-yl)-acetyl]-1,2,3,4-tetrahydro-isoquinolin-8-yl}-4-methoxy-phenyl)-acetic acid] came in with a concentration for half-maximal inhibition (IC50) of 69.5 nM.

The compound `Cc1cccc(CCC(=O)N2CCc3c(F)ccc(-c4cc(CC(=O)O)ccc4OCC(F)(F)F)c3C2)n1` [Example 304, [3-{5-Fluoro-2-[3-(6-methyl-pyridin-2-yl)-propionyl]-1,2,3,4-tetrahydro-isoquinolin-8-yl}-4-(2,2,2-trifluoro-ethoxy)-phenyl]-acetic acid] came in with an IC50 of 12.6 nM.

`COc1ccc(CC(=O)O)cc1-c1ccc(F)c2c1CN(C(=O)OCC(C)C)CC2` [Example 142, 8-(5-Carboxymethyl-2-methoxy-phenyl)-5-fluoro-3,4-dihydro-1H-isoquinoline-2-carboxylic acid isobutyl ester] yielded an IC50 of 148 nM.

The compound `O=C(O)Cc1ccc(-c2ccc(F)c3c2CN(C(=O)[C@@H]2C[C@H]2c2ccccc2)CC3)c(OCC(F)(F)F)c1` [Example 289, [4-[5-Fluoro-2-((1R,2R)-2-phenyl-cyclopropanecarbonyl)-1,2,3,4-tetrahydro-isoquinolin-8-yl]-3-(2,2,2-trifluoro-ethoxy)-phenyl]-acetic acid] displayed an IC50 of 1.4 nM.

Regarding `O=C(O)Cc1ccc(-c2ccc(F)c3c2CN(C(=O)OCc2ccccc2)CC3)cc1` [Example 41, 8-(4-Carboxymethyl-phenyl)-5-fluoro-3,4-dihydro-1H-isoquinoline-2-carboxylic acid benzyl ester], the IC50 turned out to be 44.9 nM.

Regarding `COc1ccc(CC(=O)O)cc1-c1ccc(F)c2c1CN(C(=O)CCC(=O)c1ccccc1)CC2` [Example 118, {3-[5-Fluoro-2-(4-oxo-4-phenyl-butyryl)-1,2,3,4-tetrahydro-isoquinolin-8-yl]-4-methoxy-phenyl}-acetic acid], the IC50 is 38.6 nM.

Regarding `COc1cc(CC(=O)O)ccc1-c1ccc(F)c2c1CN(C(=O)[C@@H]1C[C@H]1c1ccccc1)CC2` [Example 184, {4-[5-Fluoro-2-((1R,2R)-2-phenyl-cyclopropanecarbonyl)-1,2,3,4-tetrahydro-isoquinolin-8-yl]-3-methoxy-phenyl}-acetic acid], the IC50 came out at 0.9 nM.

The compound `COc1ccc(CC(=O)O)cc1-c1ccc(Cl)c2c1CN(C(=O)CCn1ncc3ccccc31)CC2` [Example 72, {3-[5-Chloro-2-(3-indazol-1-yl-propionyl)-1,2,3,4-tetrahydro-isoquinolin-8-yl]-4-methoxy-phenyl}-acetic acid] gave an IC50 of 37.8 nM.
